Results from patent US20110166121A1 (LG LIFE SCIENCES LTD., priority 2008, published 2011).

Test system: Human platelet aggregation caused by ADP
Assay: Inhibition of ADP-induced platelet aggregation (Mimic-human PRP)
Assay type: cell-based
Settings: 20 μM ADP, human platelet concentrate diluted with PPP, absorption at 595 nm
Summary of the method: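 Human PRP diluted with PPP to 3–4×10^8 platelets/mL was preincubated 20 min at room temperature with compound (0.01–30 μM, DMSO), then stimulated with 20 μM ADP. Aggregation read as A595 increase at 3 min versus 0 and 20 μM ADP controls; Ki from sigmoidal non-linear regression.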

Question: With `CCCc1cc2c(N3CCn4c(nnc4C(F)(F)F)C3)nc(N3CC[C@H](N(CCO)C(=O)OC)C3)nc2s1` [Example 9-94, (2-Hydroxy-ethyl)-{(S)-1-[6-propyl-4-(3-trifluoromethyl-5,6-dihydro-8H-[1,2,4]triazolo[4,3-a]pyrazin-7-yl)-thieno[2,3-d]pyrimidin-2-yl]-pyrrolidin-3-yl}-carbamic acid methyl ester] as the molecule, how does the Ki read?
Answer: Its Ki is 0.28 µM.

Question: How did the Ki turn out when `CCCc1cc2c(N3CCn4c(nnc4C(F)(F)F)C3)nc(OCCN(C)C(=O)OC)nc2s1` [Example 9-95, Methyl-{2-[6-propyl-4-(3-trifluoromethyl-5,6-dihydro-8H-[1,2,4]triazolo[4,3-a]pyrazin-7-yl)-thieno[2,3-d]pyrimidin-2-yloxy]-ethyl}-carbamic acid methyl ester] was run?
Answer: The Ki was 0.0072 µM.

Question: `CCCc1cc2c(N3CCn4c(nnc4C(F)(F)F)C3)nc(N3CC[C@H](N(CCO)C(C)=O)C3)nc2s1` [Example 9-96, N-(2-Hydroxy-ethyl)-N-{(S)-1-[6-propyl-4-(3-trifluoromethyl-5,6-dihydro-8H-[1,2,4]triazolo[4,3-a]pyrazin-7-yl)-thieno[2,3-d]pyrimidin-2-yl]-pyrrolidin-3-yl}-acetamide] was tested. Which Ki did it give?
Answer: The Ki was 0.078 µM.

Question: Which Ki does the source give for `CCCc1cc2c(N3CCn4c(nnc4C(F)(F)F)C3)nc(OCCN(C)C(C)=O)nc2s1` [Example 9-97, N-Methyl-N-{2-[6-propyl-4-(3-trifluoromethyl-5,6-dihydro-8H-[1,2,4]triazolo[4,3-a]pyrazin-7-yl)-thieno[2,3-d]pyrimidin-2-yloxy]-ethyl}-acetamide] here?
Answer: Its Ki is 0.006 µM.

Question: Which Ki does the source give for `CCCc1cc2c(N3CCn4c(nnc4C(F)(F)F)C3)nc(OCCN(CCO)C(=O)OC)nc2s1` [Example 9-98, (2-Hydroxy-ethyl)-{2-[6-propyl-4-(3-trifluoromethyl-5,6-dihydro-8H-[1,2,4]triazolo[4,3-a]pyrazin-7-yl)-thieno[2,3-d]pyrimidin-2-yloxy]-ethyl}-carbamic acid methyl ester] here?
Answer: Its Ki is 0.023 µM.

Question: With `CCCc1cc2c(N3CCn4c(nnc4C(F)(F)F)C3)nc(OCCN3CCOC3=O)nc2s1` [Example 9-99, 3-{2-[6-Propyl-4-(3-trifluoromethyl-5,6-dihydro-8H-[1,2,4]triazolo[4,3-a]pyrazin-7-yl)-thieno[2,3-d]pyrimidin-2-yloxy]-ethyl}-oxazolidin-2-one] as the molecule, how does the Ki read?
Answer: Its Ki is 0.004 µM.

Question: How did the Ki turn out when `CCCc1cc2c(N3CCn4c(nnc4C(F)(F)F)C3)nc(OCCN(CCOC(C)=O)C(C)=O)nc2s1` [Example 9-100, Acetic Acid 2-(acetyl-{2-[6-propyl-4-(3-trifluoromethyl-5,6-dihydro-8H-[1,2,4]triazolo[4,3-a]pyrazin-7-yl)-thieno[2,3-d]pyrimidin-2-yloxy]-ethyl}-amino)-ethyl ester] was run?
Answer: Its Ki is 0.038 µM.

Question: `CCCc1cc2c(N3CCn4c(nnc4C(F)(F)F)C3)nc(OCCN(C=O)CCO)nc2s1` [Example 9-101, N-(2-Hydroxy-ethyl)-N-{2-[6-propyl-4-(3-trifluoromethyl-5,6-dihydro-8H-[1,2,4]triazolo[4,3-a]pyrazin-7-yl)-thieno[2,3-d]pyrimidin-2-yloxy]-ethyl}-formamide] was tested. Which Ki did it give?
Answer: The Ki was 0.012 µM.

Question: `CCCc1cc2c(N3CCn4c(nnc4C(F)(F)F)C3)nc(OCCN(CCO)C(C)=O)nc2s1` [Example 9-102, N-(2-Hydroxy-ethyl)-N-{2-[6-propyl-4-(3-trifluoromethyl-5,6-dihydro-8H-[1,2,4]triazolo[4,3-a]pyrazin-7-yl)-thieno[2,3-d]pyrimidin-2-yloxy]-ethyl}-acetamide] was tested. Which Ki did it give?
Answer: Its Ki is 0.008 µM.

Question: Which Ki does the source give for `CCCc1cc2c(N3CCn4c(nnc4C(F)(F)F)C3)nc(N(C)CCC#N)nc2s1` [Example 9-103, 3-{Methyl-[6-propyl-4-(3-trifluoromethyl-5,6-dihydro-8H-[1,2,4]triazolo[4,3-a]pyrazin-7-yl)-thieno[2,3-d]pyrimidin-2-yl]-amino}-propionitrile] here?
Answer: The Ki was 0.07 µM.

Question: `CCCc1cc2c(N3CCn4c(nnc4C(F)(F)F)C3)nc(N(C)CCC(N)=O)nc2s1` [Example 9-104, 3-{Methyl-[6-propyl-4-(3-trifluoromethyl-5,6-dihydro-8H-[1,2,4]triazolo[4,3-a]pyrazin-7-yl)-thieno[2,3-d]pyrimidin-2-yl]-amino}-propionamide] was tested. Which Ki did it give?
Answer: Its Ki is 0.014 µM.

Question: Which Ki does the source give for `CCCc1cc2c(N3CCn4c(nnc4C(F)(F)F)C3)nc(OCCN3C(=O)CNC3=O)nc2s1` [Example 9-105, 3-{2-[6-Propyl-4-(3-trifluoromethyl-5,6-dihydro-8H-[1,2,4]triazolo[4,3-a]pyrazin-7-yl)-thieno[2,3-d]pyrimidin-2-yloxy]-ethyl}-imidazolidine-2,4-dione] here?
Answer: The Ki was over 3 µM.

Question: Which Ki does the source give for `CCCc1cc2c(N3CCn4c(nnc4C(F)(F)F)C3)nc(N(C)CCO)nc2s1` [Example 9-106, 2-{Methyl-[6-propyl-4-(3-trifluoromethyl-5,6-dihydro-8H-[1,2,4]triazolo[4,3-a]pyrazin-7-yl)-thieno[2,3-d]pyrimidin-2-yl]-amino}-ethanol] here?
Answer: Its Ki is 0.14 µM.

Question: `CCCc1cc2c(N3CCn4c(nnc4C(F)(F)F)C3)nc(NC(=O)OC)nc2s1` [Example 9-107, [6-Propyl-4-(3-trifluoromethyl-5,6-dihydro-8H-[1,2,4]triazolo[4,3-a]pyrazin-7-yl)-thieno[2,3-d]pyrimidin-2-yl]-carbamic acid methyl ester] was tested. Which Ki did it give?
Answer: The Ki was 0.17 µM.

Target: T1, Human P2Y12 receptor (Homo sapiens, UniProt Q9H244)
T1 construct: expressed in transfected cells; host or cells: HEK cells
Assay: Human P2Y12 receptor cell membrane binding assay with [3H] 2-Mes-ADP
Settings: 1 nM [3H] 2-Mes-ADP, membranes of HEK cells expressing P2Y12 receptor; read-out: Binding activity (IC50)
Experimental: Human P2Y12 Receptor Cell Membrane Binding Assay with [^3H] 2-Mes-ADP
Whether test compounds bind to P2Y12 receptor is measured by [3H]-2MesADP binding in HEK cells expressing P2Y12 receptor. The efficacy according to the amount of test compound can be known through the above test, competitive binding test to P2Y12 receptor, in which the binding material (2-Mes-ADP) is labeled with radioactivity isotope and then the extent of inhibition against the binding of radioactively labeled material is measured.
Preparation of P2Y12 Membrane Protein Fraction
Harvested P2Y12 cells were resuspended with Hypotonic buffer (10 mM HEPES, 10 mM NaCl, 1 mM EDTA, 1 mM EGTA pH 7.4) containing protease inhibitor cocktail. Following the incubation on ice for 15 min, cells were homogenized on ice (Glass/Teflon homogenizer; 1,000 rpm, 10 strokes). The supernant was taken from centrifugation at 500×g for 15 min and then recentrifuged the supernant at 30,000 rpm for 30 min. The membrane pellet was adjusted to 1 mg/mL concentration and stored at −80° C.
P2Y12 Receptor Cell Membrane Binding Assay with [3H] 2-Mes-ADP
The volume of 100 μL of 200 μg membrane protein was aliquoted into 96 well plate. 50 μL volume of test compounds and [^3H] 2-Mes-ADP (final: 1 nM) were added into each well. The total reaction of 0.2 ml/well was incubated for 1 hour at R.T. The reaction was terminated by filtration through GF/B filter using a 96-well cell harvester. […] Radioactivity bound to P2Y12 receptor membrane was counted in a scintillation counter. Total binding was determined with CPM of test group having no compound and non-specific binding was determined with CPM of test group containing 10 μM 2-Mes-ADP. Binding inhibition percent was calculated as follows: [100−(specific binding in the presence of test material/specific binding in the absence of test material×100)].

T1 sequence (Q9H244 whole entry): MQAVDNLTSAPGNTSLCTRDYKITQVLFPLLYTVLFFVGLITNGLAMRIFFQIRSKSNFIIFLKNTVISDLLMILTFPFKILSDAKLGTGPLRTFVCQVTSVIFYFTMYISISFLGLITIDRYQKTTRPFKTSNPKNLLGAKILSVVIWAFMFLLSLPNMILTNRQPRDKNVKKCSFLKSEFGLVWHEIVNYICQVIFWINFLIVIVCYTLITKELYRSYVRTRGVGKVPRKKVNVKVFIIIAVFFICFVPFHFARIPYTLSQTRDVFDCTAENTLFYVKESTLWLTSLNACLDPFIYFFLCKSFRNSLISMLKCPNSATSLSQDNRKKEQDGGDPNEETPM

Question: With `CCCc1cc2c(N3CCn4c(nnc4C(F)(F)F)C3)nc(NCC(O)CO)nc2s1` (centres unmarked) [Example 1-2, 3-[6-Propyl-4-(3-trifluoromethyl-5,6-dihydro-8H-[1,2,4]triazolo[4,3-a]pyrazin-7-yl)-thieno[2,3-d]pyrimidin-2-ylamino]-propane-1,2-diol] as the molecule, how does the IC50 read?
Answer: Its IC50 is 0.16 µM.

Question: Which IC50 does the source give for `CCCc1cc2c(N3CCn4c(nnc4C(F)(F)F)C3)nc(N3CCc4[nH]ncc4C3)nc2s1` [Example 1-76, 7-[6-Propyl-2-(1,4,6,7-tetrahydro-pyrazolo[4,3-c]pyridin-5-yl)-thieno[2,3-d]pyrimidin-4-yl]-3-trifluoromethyl-5,6,7,8-tetrahydro-[1,2,4]triazolo[4,3-a]pyrazine] here?
Answer: The IC50 was 0.028 µM.

Question: Which IC50 does the source give for `CCCc1cc2c(N3CCn4c(nnc4C(F)(F)F)C3)nc(N3CCc4c(nc(C)nc4C(F)(F)F)C3)nc2s1` [Example 1-80, 2-Methyl-7-[6-propyl-4-(3-trifluoromethyl-5,6-dihydro-8H-[1,2,4]triazolo[4,3-a]pyrazin-7-yl)-thieno[2,3-d]pyrimidin-2-yl]-4-trifluoromethyl-5,6,7,8-tetrahydro-pyrido[3,4-d]pyrimidine] here?
Answer: The IC50 was 0.043 µM.

Question: Which IC50 does the source give for `CCCc1cc2c(N3CCn4c(nnc4C(F)(F)F)C3)nc(Nc3nc(C(=O)OCC)cs3)nc2s1` [Example 1-131, 2-[6-Propyl-4-(3-trifluoromethyl-5,6-dihydro-8H-[1,2,4]triazolo[4,3-a]pyrazin-7-yl)thieno[2,3-d]pyrimidin-2-ylamino]thiazole-4-carboxylic acid ethyl ester] here?
Answer: The IC50 was 1.93 µM.

Question: With `Cc1cc2c(N3CCn4c(nnc4C(F)(F)F)C3)nc(N3CCNC(=O)C3)nc2s1` [Example 2-1, 4-[6-Methyl-4-(3-trifluoromethyl-5,6-dihydro-8H-[1,2,4]triazolo[4,3-a]pyrazin-7-yl)-thieno[2,3-d]pyrimidin-2-yl]-piperazin-2-one] as the molecule, how does the IC50 read?
Answer: The IC50 was 1.1 µM.

Question: How did the IC50 turn out when `CCc1cc2c(N3CCn4c(nnc4C(F)(F)F)C3)nc(NCC(O)CO)nc2s1` (centres unmarked) [Example 2-3, 3-[6-Ethyl-4-(3-trifluoromethyl-5,6-dihydro-8H-[1,2,4]triazolo[4,3-a]pyrazin-7-yl)-thieno[2,3-d]pyrimidin-2-ylamino]-propane-1,2-diol] was run?
Answer: The IC50 was 0.847 µM.
